Test results as given in patent EP0514133A1, “Benzodiazepine derivatives, compositions containing them and their use in therapy” (priority 1991, dated 1992).

Tests used:
[1] = target: T1, CCK receptor (pancreas) (Rattus norvegicus, UniProt P30551); assay: biochemical; format: binding; conditions: rat pancreas membranes; for IC50: 50 pM 125I-CCK-8, 25°C 2 hours
T1 construct: The whole pancreas was dissected free of fat tissue and was homogenized; from tissue; host or cells: rat pancreas membrane homogenate
T1 sequence (P30551 1-444): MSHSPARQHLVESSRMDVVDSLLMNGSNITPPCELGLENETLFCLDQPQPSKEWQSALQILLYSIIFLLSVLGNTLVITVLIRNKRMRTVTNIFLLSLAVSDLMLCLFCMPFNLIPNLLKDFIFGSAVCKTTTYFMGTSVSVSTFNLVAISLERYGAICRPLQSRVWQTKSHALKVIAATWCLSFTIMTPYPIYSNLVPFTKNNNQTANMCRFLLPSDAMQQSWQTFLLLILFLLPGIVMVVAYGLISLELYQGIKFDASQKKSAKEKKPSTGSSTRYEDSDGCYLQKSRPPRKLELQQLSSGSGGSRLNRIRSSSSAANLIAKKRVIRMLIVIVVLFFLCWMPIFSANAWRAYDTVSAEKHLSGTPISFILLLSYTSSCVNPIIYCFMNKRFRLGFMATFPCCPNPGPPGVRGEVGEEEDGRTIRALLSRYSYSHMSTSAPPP
Description: CCK-8 sulphated was radiolabelled with ¹²⁵I-Bolton Hunter reagent (2000 Ci/mmole). Receptor binding was performed according to Chang and Lotti (Proc. Natl. Acad. Sci. 83, 4923-4926, 1986) with minor modifications.
Male Sprague-Dawley rats (150-200g) were sacrificed by decapitation. The whole pancreas was dissected free of fat tissue and was homogenized in 25 volumes of ice-cold 10 mM N-2-hydroxyethyl-piperazine-N′-2-ethane sulphonic acid (HEPES) buffer with 0.1% soya bean trypsin inhibitor (pH 7.4 at 25°C) with a Kinematica Polytron. The homogenates were centrifuged at 47,800 g for 10 min. Pellets were resuspended in 10 volumes of binding assay buffer (20mM (HEPES)), 1mM ethylene glycol-bis-(β-aminoethylether-N,N′-tetraacetic acid) (EGTA), 5mM MgCl₂, 150 mM NaCl, bacitracin 0.25 mg/ml, soya bean trypsin inhibitor 0.1 mg/ml, and bovine serum albumin 2 mg/ml pH 6.5 at 25°C) using a Teflon (trademark) homogenizer, 15 strokes at 500 rpm. The homogenate was further diluted in binding assay buffer to give a final concentration of 0.5 mg original wet weight/1 ml buffer. […] All assays were run in duplicate. The reaction mixtures were incubated at 25°C for 2 hours and the reaction terminated by rapid filtration (Brandell 24 well cell harvester) over Whatman GF/C filters, washing 3 x 4 mls with ice-cold 100 Mm NaCl. The radioactivity on the filters was counted with a LKB gamma counter.
(§1) Drug displacement studies were performed with at least 10 concentrations of compounds of Formula I and the IC₅₀ values were determined by regression analysis IC₅₀ refers to the concentration of the compound required to inhibit 50% of specific binding of ¹²⁵I-CCK-8.

[2] = target: T2, CCK receptor (brain, cortex) (Cavia porcellus, UniProt H0VZC5); assay: biochemical; format: binding, guinea pig; conditions: guinea pig cortex membranes, 50 pM 125I-CCK-8, 25°C 2 hours; read-out: IC50 ^125I-CCK Brain
T2 construct: the cortex was removed and homogenized in 25 mL ice-cold 0.32 M sucrose; from tissue; host or cells: guinea pig brain cortex P2 membrane pellet
T2 sequence (H0VZC5 1-426): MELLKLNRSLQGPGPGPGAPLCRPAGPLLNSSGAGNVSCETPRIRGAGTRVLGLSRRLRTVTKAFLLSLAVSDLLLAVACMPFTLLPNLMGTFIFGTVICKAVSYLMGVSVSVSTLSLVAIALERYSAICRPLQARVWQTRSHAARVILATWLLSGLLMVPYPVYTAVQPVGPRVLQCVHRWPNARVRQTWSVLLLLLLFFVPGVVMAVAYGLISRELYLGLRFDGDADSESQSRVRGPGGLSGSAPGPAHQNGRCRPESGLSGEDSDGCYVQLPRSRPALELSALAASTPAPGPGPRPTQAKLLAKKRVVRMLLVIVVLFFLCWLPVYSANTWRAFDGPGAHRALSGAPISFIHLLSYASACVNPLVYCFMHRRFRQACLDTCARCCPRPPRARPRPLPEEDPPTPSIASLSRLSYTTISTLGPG
Description: CCK-8 sulphated was radiolabelled and the binding was performed according to the description for the pancreas method with minor modifications.
Male Hartley guinea pigs (300-500g) were sacrificed by decapitation and the cortex was removed and homogenized in 25 mL ice-cold 0.32 M sucrose. The homogenates were centrifuged at 1000 g for 10 minutes and the resulting supernatant was recentrifuged at 20,000 g for 20 minutes. The P₂ pellet was resuspended in binding assay buffer (20mM HEPES, 5 mM MgCl₂, 0.25 mg/ml bacitracin, 1 mM EGTA pH 6.5 at 25°C), using a Teflon (trademark) homogenizer (5 strokes at 500 rpm) to give a final concentration of 10 mg original wet weight/1.2 ml buffer. […] All assays were run in duplicate. The reaction mixtures were incubated at 25°C for 2 hours and then the reaction was terminated by rapid filtration (Brandell 24 well cell harvester) on Whatman GF/C filters with 3 x 5 ml washes of cold 100 mM NaCl. The radioactivity on the filters was counted with a LKB gamma counter.
as §1

inhibition at 3 µM ([1]; at 3μM, read-out: inhibition of ^125I-CCK binding, Pancreas) [%] | SMILES | IC50 [1] [nM] | IC50 [2] [nM]
 | CCCN1C(=O)C(NC(=O)Nc2cccc(C(=O)NS(=O)(=O)C(C)C)c2)N=C(C2CCCC2)c2ccccc21 (racemic) [Example 36, N-[3(R,S)-5-Cyclopentyl-2,3-dihydro-1-propyl-2-oxo-1H-1,4-benzodiazepin-3-yl] N′-[3-(isopropylsulphonylaminocarbonyl)phenyl] urea] | 1300 | 1.2
 | CN1C(=O)C(NC(=O)Nc2cccc(-c3nnn(C)n3)c2)N=C(C2CCCCC2)c2ccccc21 (racemic) [Example 28, N-[3(R,S)-5-Cyclohexyl-2,3-dihydro-1-methyl-2-oxo-1H-1,4-benzodiazepin-3-yl] N′-[3-(2-methyltetrazol-5-yl)phenyl]urea] | 8.3 | 4
 | CN1C(=O)C(NC(=O)Nc2ccc3c(c2)C(=O)NS(=O)(=O)C3)N=C(C2CCCCC2)c2ccccc21 (racemic) [Example 44, N-[3(R,S)-5-Cyclohexyl-2,3-dihydro-1-methyl-2-oxo-1H-1,4-benzodiazepin-3-yl] N′-(3,4-dihydro-2,2-dioxo-4-oxo-1H-2,3-benzothiazin-6-yl] urea] | 100 | 3.4
 | CN1C(=O)C(NC(=O)Nc2cccc(C(=O)NS(=O)(=O)C(F)(F)F)c2)N=C(C2CCCCC2)c2ccccc21 (racemic) [Example 18, N-[3(R,S)-5-Cyclohexyl-2,3-dihydro-1-methyl-2-oxo-1H-1,4-benzodiazepin-3-,yl] N′-[3-(trifluoromethylsulphonylaminocarbonyl)phenyl] urea] | 13.8 | 0.09
 | CN1C(=O)C(NC(=O)Nc2cccc(S(=O)(=O)Nc3nccs3)c2)N=C(C2CCCCC2)c2ccccc21 (racemic) [Example 26, N-[3(R,S)-5-Cyclohexyl-2,3-dihydro-1-methyl-2-oxo-1H-1,4-benzodiazepin-3-yl] N′-[3-(thiazol-2-ylaminosulphonyl)phenyl]urea] | 60 | 2.3
 | CC(C)S(=O)(=O)NC(=O)c1cccc(NC(=O)NC2N=C(C3CCCCC3)c3ccccc3N(C)C2=O)c1 (single isomer, unassigned) [24 (Peak B)] | 5 | 
 | CN1C(=O)C(NC(=O)Nc2cccc(C(=O)NS(=O)(=O)c3ccccc3)c2)N=C(C2CCCCC2)c2ccccc21 (racemic) [Example 14, N-[3(R,S)-5-Cyclohexyl-2,3-dihydro-1-methyl-2-oxo-1H-1,4-benzodiazepin-3-yl] N′-[3-(phenylsulphonylaminocarbonyl)phenyl] urea] | 11.1 | 0.58
 | CN1C(=O)C(NC(=O)Nc2cccc(C(=O)NS(C)(=O)=O)c2)N=C(C2CCCCC2)c2ccccc21 (racemic) [Example 16, N-(3(R,S)-5-Cyclohexyl-2,3-dihydro-1-methyl-2-oxo-1H-1,4-benzodiazepin-3-yl] N′-[3-(methylsulphonylaminocarbonyl)phenyl] urea] | 2 | 
 | CCS(=O)(=O)NC(=O)c1cccc(NC(=O)NC2N=C(C3CCCCC3)c3ccccc3N(C)C2=O)c1 (racemic) [Example 23, N-[3(R,S)-5-Cyclohexyl-2,3-dihydro-1-methyl-2-oxo-1H-1,4-benzodiazepin-3-yl] N′-[3-(ethylsulphonylaminocarbonyl)phenyl]urea] | 5 | 0.96
 | Cc1cccc(NC(=O)NC2N=C(C3CCCCC3)c3ccccc3N(C)C2=O)c1 (single isomer, unassigned) [7 (Peak B)] |  | 100
 | CN1C(=O)C(NC(=O)Nc2cccc(C(=O)NS(=O)(=O)c3ccccc3)c2)N=C(C2CCCC2)c2ccccc21 (racemic) [Example 40, N-[3(R,S)-5-Cyclopentyl-2,3-dihydro-1-methyl-2-oxo-1H-1,4-benzodiazepin-3-yl] N′-[3-(phenylsulphonylaminocarbonyl)phenyl] urea] | 310 | 
 | CCN1C(=O)C(NC(=O)Nc2cccc(C(=O)NS(=O)(=O)C(C)C)c2)N=C(C2CCCC2)c2ccccc21 (racemic) [Example 30, N-[3(R,S)-5-Cyclopentyl-2,3-dihydro-1-ethyl-2-oxo-1H-1,4-benzodiazepin-3-yl] N′-[3-(isopropylsulphonylaminocarbonyl)phenyl] urea] | 170 | 3.2
 | Cc1ccccc1S(=O)(=O)NC(=O)c1cccc(NC(=O)N[C@@H]2N=C(C3CCCCC3)c3ccccc3N(C)C2=O)c1 [Example 33, N-[3(R)-5-Cyclohexyl-2,3-dihydro-1-methyl-2-oxo-1H-1,4-benzodiazepin-3-yl] N′-[3-(2-methylphenylsulphonylaminocarbonyl)phenyl] urea] | 1600 | 
~27 | CC(C)CN1C(=O)C(NC(=O)Nc2cccc(-c3nn[nH]n3)c2)N=C(C2CCCCC2)c2ccccc21 (racemic) [Example 2, N-[3(R,S)-5-Cyclohexyl-2,3-dihydro-1-(2-methylpropyl)-2-oxo-1H-1,4-benzodiazepin-3-yl] N′-[3-tetrazol-5-ylphenyl] urea] |  | 0.42
 | CN1C(=O)C(NC(=O)Nc2cccc(-c3nn[nH]n3)c2)N=C(C2CCCC2)c2ccccc21 (racemic) [Example 8, N-[3(R,S)-5-Cyclopentyl-2,3-dihydro-1-methyl-2-oxo-1H-1,4-benzodiazepin-3-yl] N′-[3-tetrazol-5-ylphenyl] urea] | 56 | 1.6
 | CN1C(=O)C(NC(=O)Nc2cccc(-c3cc(=O)c(O)co3)c2)N=C(C2CCCCC2)c2ccccc21 (racemic) [Example 43, N-[3(R,S)-5-Cyclohexyl-2,3-dihydro-1-methyl-2-oxo-1H-1,4-benzodiazepin-3-yl] N′-[3-(5-hydroxy-4-pyron-2-yl)phenyl] urea] | 17.8 | 2.1
 | CC(C)CN1C(=O)C(NC(=O)Nc2cccc(-c3nn[nH]n3)c2)N=C(C2CCCC2)c2ccccc21 (racemic) [Example 3, N-[3(R,S)-5-Cyclopentyl-2,3-dihydro-1-(2-methylpropyl)-2-oxo-1H-1,4-benzodiazepin-3-yl] N′-[3-tetrazol-5-ylphenyl]urea] | 800 | 0.3
 | CN1C(=O)C(NC(=O)Nc2cccc(S(=O)(=O)NC(=O)c3ccccc3)c2)N=C(C2CCCCC2)c2ccccc21 (racemic) [Example 13, N-(3(R,S)-5-Cyclohexyl-2,3-dihydro-1-methyl-2-oxo-1H-1,4-benzodiazepin-3-yl] N′-[3-(phenylcarbonylaminosulphonyl)phenyl] urea] | 738 | 
 | Cc1ccc(NC(=O)N[C@@H]2N=C(C3CCCCC3)c3ccccc3N(C)C2=O)cc1C(=O)NS(C)(=O)=O [Example 34, N-[3(R)-5-Cyclohexyl-2,3-dihydro-1-methyl-2-oxo-1H-1,4-benzodiazepin-3-yl] N′-[4-methyl-3-(methylsulphonylaminocarbonyl)phenyl] urea] | 1700 | 2.3
